From patent US8268988B2, “Process for preparing an A2A-adenosine receptor agonist and its polymorphs” (Gilead Sciences, Inc., priority 2006, dated 2012)

Experiments:
A2A-adenosine receptor = A2A-adenosine receptor (Homo sapiens, UniProt P29274); conditions: result in words; cited from earlier work
[1] = cited from earlier work
[2] = stability of the polymorphs (relative humidity stress, moisture sorption/desorption, thermal analyses); format: physicochemical; conditions: for stability relative to the other polymorphs: ambient temperatures; for stability relative to the other polymorphs / stability under relative humidity stress conditions: monohydrate; for stability under relative humidity stress conditions: up to melting point
Description: Thermogravimetric (TG) analyses were carried out on a TA Instruments 2050 or 2950 thermogravimetric analyzer. The calibration standards were nickel and Alumel™. Samples were placed in an aluminum sample pan, inserted into the TG furnace, and accurately weighed. The samples were heated in nitrogen at a rate of 10° C./min to either 300 or 350° C. Unless stated otherwise, sample weights were equilibrated at 25° C. in the TGA furnace prior to analysis.
Differential scanning calorimetry (DSC) analyses were carried out on a TA Instruments differential scanning calorimeter 2920. Accurately weighed samples were placed in either crimped pans or hermetically sealed pans that contained a pinhole to allow for pressure release. Each sample was heated under nitrogen at a rate of 10° C./min to either 300 or 350° C. Indium metal was used as the calibration standard. Temperatures were reported at the transition maxima.
Moisture sorption/desorption data were collected on a VTI SGA-100 Vapor Sorption Analyzer. Sorption and desorption data were collected over a range of 5% to 95% relative humidity […] at 10% RH intervals under a nitrogen purge. Sodium chloride (NaCl) and polyvinylpyrrolidone (PVP) were used as the calibration standards. Equilibrium criteria used for analysis were less than 0.0100% weight change in 5 minutes, with a maximum equilibration time of 180 minutes if the weight criterion was not met. The plotted data have not been corrected for the initial moisture content.

Sequence of A2A-adenosine receptor (P29274 whole entry): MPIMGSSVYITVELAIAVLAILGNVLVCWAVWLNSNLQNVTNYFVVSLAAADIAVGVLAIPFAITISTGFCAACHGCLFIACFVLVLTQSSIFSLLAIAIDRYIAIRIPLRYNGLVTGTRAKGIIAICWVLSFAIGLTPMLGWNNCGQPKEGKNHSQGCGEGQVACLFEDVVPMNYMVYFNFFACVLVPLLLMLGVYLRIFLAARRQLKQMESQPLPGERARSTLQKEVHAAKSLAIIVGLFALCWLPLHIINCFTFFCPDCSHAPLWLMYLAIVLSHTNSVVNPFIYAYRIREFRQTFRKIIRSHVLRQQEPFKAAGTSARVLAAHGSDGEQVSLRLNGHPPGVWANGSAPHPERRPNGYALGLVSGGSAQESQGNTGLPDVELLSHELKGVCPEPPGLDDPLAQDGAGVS

CNC(=O)c1cnn(-c2nc(N)c3ncn([C@@H]4O[C@H](CO)[C@@H](O)[C@H]4O)c3n2)c1 [(1-{9-[(4S,2R,3R,5R)-3,4-dihydroxy-5-(hydroxymethyl)oxolan-2-yl]-6-aminopurin-2-yl}pyrazol-4-yl)-N-methylcarboxamide]
A2A-adenosine receptor agonist selectivity (A2A-adenosine receptor): highly selective A2A-adenosine receptor agonist

Nc1ncnc2c1ncn2[C@@H]1O[C@H](CO)[C@@H](O)[C@H]1O [Adenosine]
half life in humans [1]: less than 10 seconds

CNC(=O)c1cnn(-c2nc(N)c3ncn([C@@H]4O[C@H](CO)[C@@H](O)[C@H]4O)c3n2)c1 [Amorphous Material, (1-{9-[(4S,2R,3R,5R)-3,4-dihydroxy-5-(hydroxymethyl)oxolan-2-yl]-6-aminopurin-2-yl}pyrazol-4-yl)-N-methylcarboxamide]
stability in the presence of atmospheric moisture ([2]; atmospheric moisture): unstable in the presence of atmospheric moisture, forming variable hydrates

CNC(=O)c1cnn(-c2nc(N)c3ncn([C@@H]4O[C@H](CO)[C@@H](O)[C@H]4O)c3n2)c1.O [Form A, (1-{9-[(4S,2R,3R,5R)-3,4-dihydroxy-5-(hydroxymethyl)oxolan-2-yl]-6-aminopurin-2-yl}pyrazol-4-yl)-N-methylcarboxamide monohydrate]
stability relative to the other polymorphs ([2]; listed as monohydrate): the most stable | stability relative to the other polymorphs [2]: the most stable of the various polymorphs at ambient temperatures | stability under relative humidity stress conditions ([2]; listed as monohydrate): stable under relative humidity stress conditions, up to its melting point | stability under relative humidity stress conditions [2]: stable under relative humidity stress conditions up to its melting point

CNC(=O)c1cnn(-c2nc(N)c3ncn([C@@H]4O[C@H](CO)[C@@H](O)[C@H]4O)c3n2)c1 [Polymorph C, (1-{9-[(4S,2R,3R,5R)-3,4-dihydroxy-5-(hydroxymethyl)oxolan-2-yl]-6-aminopurin-2-yl}pyrazol-4-yl)-N-methylcarboxamide]
behaviour at elevated temperatures ([2]; elevated temperatures): desolvates to an unstable form
